ChEMBL document CHEMBL1144970, “Protective effects of steroid saponins from Paris polyphylla var. yunnanensis on ethanol- or indomethacin-induced gastric mucosal lesions in rats: structural requirement for activity and mode of action” (Bioorg Med Chem Lett, 2003)

Key:
[1] = tested on: Rattus norvegicus; assay: Percent inhibition of gastric lesions induced by endomethacin was measured, after administration of 10 mg/kg po in rats; type: functional; conditions: Stomach
[2] = tested on: Rattus norvegicus; assay: Reduction in length (control value = 54.6+/-16.5) of gastric lesions induced by endomethacin was measured, after administration of 10 mg/kg po in rats; type: functional, Stomach
[3] = tested on: Rattus norvegicus; assay: Percent inhibition of gastric lesions induced by ethanol was measured, after administration of 10 mg/kg po in rats; type: functional; conditions: Stomach
[4] = tested on: Rattus norvegicus; assay: Reduction in length (control value = 107+/-14.5) of gastric lesions induced by ethanol was measured, after administration of 2.5 mg/kg po in rats; type: functional, Stomach
[5] = tested on: Rattus norvegicus; assay: Percent inhibition of gastric lesions induced by ethanol was measured, after administration of 5 mg/kg po in rats; type: functional; conditions: Stomach
[6] = tested on: Rattus norvegicus; assay: Reduction in length ((control value = 126+/-9.1) of gastric lesions induced by ethanol was measured, after administration of 2.5 mg/kg po in rats; type: functional, Stomach
[7] = tested on: Rattus norvegicus; assay: Reduction in length (control value = 88.9+/-5.5) of gastric lesions induced by endomethacin was measured, after administration of 5 mg/kg po in rats; type: functional, Stomach
[8] = tested on: Rattus norvegicus; assay: Reduction in length (control value = 126+/-9.1) of gastric lesions induced by ethanol was measured, after administration of 5 mg/kg po in rats; type: functional, Stomach
[9] = tested on: Rattus norvegicus; assay: Percent inhibition of gastric lesions induced by ethanol was measured, after administration of 2.5 mg/kg po in rats; type: functional; conditions: Stomach
[10] = tested on: Rattus norvegicus; assay: Percent inhibition of gastric lesions induced by endomethacin was measured, after administration of 5 mg/kg po in rats; type: functional; conditions: Stomach
[11] = tested on: Rattus norvegicus; assay: Reduction in length ((control value = 126+/-9.1)of gastric lesions induced by ethanol was measured, after administration of 2.5 mg/kg po in rats; type: functional, Stomach

Structure (SMILES) | inhibition in vivo at 10 mg/kg [1] [%] | Length [2] [mm] | inhibition in vivo at 10 mg/kg [3] [%] | Length [4] [mm] | inhibition in vivo at 5 mg/kg [5] [%] | Length [6] [mm] | Length [7] [mm] | Length [8] [mm] | inhibition in vivo at 2.5 mg/kg [9] [%] | inhibition in vivo at 5 mg/kg [10] [%] | Length [11] [mm]
C[C@@H]1CC[C@@]2(OC1)O[C@H]1C[C@H]3[C@@H]4CC=C5C[C@@H](O)CC[C@]5(C)[C@H]4CC[C@]3(C)[C@H]1[C@@H]2C [DISOGENIN] | 8.6 | 49.9 | 28.1 | 76.9 | – | – | – | – | – | – | –
C[C@H](CCC1(O)OC2CC3C4CC=C5C[C@@H](O[C@@H]6O[C@H](CO)C(O[C@@H]7O[C@@H](CO)[C@H](O)[C@H]7O)[C@@H](O)[C@H]6O[C@@H]6O[C@@H](C)[C@H](O)[C@@H](O)[C@H]6O)CC[C@]5(C)C4CC[C@]3(C)C2[C@@H]1C)CO[C@@H]1O[C@H](CO)[C@@H](O)[C@H](O)[C@H]1O (stereo partly specified) [PARISAPONIN I] | – | – | – | – | 15.6 | 114 | 82.5 | 106 | 9.2 | 7.2 | –
C[C@H](CCC1(O)OC2CC3C4CC=C5C[C@@H](O[C@@H]6O[C@H](CO)[C@@H](O)[C@H](O)[C@H]6O[C@@H]6O[C@@H](C)[C@H](O)[C@@H](O)[C@H]6O)CC[C@]5(C)C4CC[C@]3(C)C2[C@@H]1C)CO[C@@H]1O[C@H](CO)[C@@H](O)[C@H](O)[C@H]1O (stereo partly specified) [TRIGOFOENOSIDE A] | – | – | – | – | 11.7 | – | 74.7 | 111 | 26.2 | 16 | 93
